Source: ChEMBL document CHEMBL3822396 (J Med Chem, 2016)
Calls of active or inactive are those of the source. The calls are words filed in the database; no cut-off is given here.

Experiments:
[1] = Cmax in Sprague-Dawley rat at 2 mg/kg, po administered through cassette dosing as by LC-MS/MS analysis; type: ADME, organism-based; set-up: dose 2 mg/kg, route oral; conditions: in vivo
[2] = AUC in Sprague-Dawley rat at 2 mg/kg, po administered through cassette dosing by LC-MS/MS analysis; type: ADME, organism-based; conditions: in vivo
[3] = molecular target: Mitogen-activated protein kinase 14 (Homo sapiens, UniProt Q16539)
Mitogen-activated protein kinase 14, sequence (Q16539 whole entry): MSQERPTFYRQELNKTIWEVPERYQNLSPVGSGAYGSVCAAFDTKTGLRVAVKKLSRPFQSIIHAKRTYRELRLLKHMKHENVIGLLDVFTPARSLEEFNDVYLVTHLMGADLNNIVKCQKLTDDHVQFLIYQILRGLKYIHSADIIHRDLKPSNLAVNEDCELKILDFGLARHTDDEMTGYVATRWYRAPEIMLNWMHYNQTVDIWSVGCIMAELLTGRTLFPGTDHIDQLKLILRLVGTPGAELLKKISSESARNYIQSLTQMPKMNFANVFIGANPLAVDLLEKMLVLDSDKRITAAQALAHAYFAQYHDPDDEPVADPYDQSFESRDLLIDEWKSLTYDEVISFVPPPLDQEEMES

[4] = molecular target: Vascular endothelial growth factor receptor 2 (Homo sapiens, UniProt P35968)
Vascular endothelial growth factor receptor 2, sequence (P35968 whole entry): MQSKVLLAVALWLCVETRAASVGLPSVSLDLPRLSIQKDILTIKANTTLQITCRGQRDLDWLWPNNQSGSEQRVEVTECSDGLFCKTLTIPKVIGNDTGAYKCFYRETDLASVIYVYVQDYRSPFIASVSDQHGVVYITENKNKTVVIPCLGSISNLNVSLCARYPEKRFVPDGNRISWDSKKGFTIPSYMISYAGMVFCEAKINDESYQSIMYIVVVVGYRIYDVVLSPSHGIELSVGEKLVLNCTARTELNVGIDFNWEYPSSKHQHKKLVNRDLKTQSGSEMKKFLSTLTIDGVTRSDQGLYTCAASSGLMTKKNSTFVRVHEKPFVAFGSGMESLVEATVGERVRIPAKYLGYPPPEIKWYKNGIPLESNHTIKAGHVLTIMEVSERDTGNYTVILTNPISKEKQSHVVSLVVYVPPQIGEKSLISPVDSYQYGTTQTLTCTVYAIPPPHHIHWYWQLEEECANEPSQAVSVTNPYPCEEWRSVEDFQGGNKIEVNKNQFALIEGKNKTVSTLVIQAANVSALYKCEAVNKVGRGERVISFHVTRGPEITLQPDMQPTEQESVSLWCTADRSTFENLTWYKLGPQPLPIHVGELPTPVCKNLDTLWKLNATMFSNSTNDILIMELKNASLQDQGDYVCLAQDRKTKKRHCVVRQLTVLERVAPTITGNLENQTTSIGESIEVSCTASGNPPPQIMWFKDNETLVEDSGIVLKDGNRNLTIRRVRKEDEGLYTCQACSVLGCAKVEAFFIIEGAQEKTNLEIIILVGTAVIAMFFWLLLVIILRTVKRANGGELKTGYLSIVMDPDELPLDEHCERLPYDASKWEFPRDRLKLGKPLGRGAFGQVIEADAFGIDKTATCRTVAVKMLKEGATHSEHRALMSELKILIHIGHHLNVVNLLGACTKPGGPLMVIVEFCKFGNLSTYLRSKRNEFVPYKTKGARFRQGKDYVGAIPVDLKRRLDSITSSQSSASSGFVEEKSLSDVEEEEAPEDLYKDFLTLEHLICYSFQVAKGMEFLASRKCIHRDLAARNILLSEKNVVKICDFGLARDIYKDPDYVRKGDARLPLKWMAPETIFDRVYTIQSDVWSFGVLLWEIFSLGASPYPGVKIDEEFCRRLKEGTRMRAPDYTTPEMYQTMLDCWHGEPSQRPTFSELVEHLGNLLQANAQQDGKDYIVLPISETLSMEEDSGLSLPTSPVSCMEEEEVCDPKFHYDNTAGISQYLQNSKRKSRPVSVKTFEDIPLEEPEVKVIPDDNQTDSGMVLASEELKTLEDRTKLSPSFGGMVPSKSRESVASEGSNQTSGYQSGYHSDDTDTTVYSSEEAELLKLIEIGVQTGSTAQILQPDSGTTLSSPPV

[5] = Permeability of the compound; type: ADME; conditions: not told; read-out: permeability
Intestinal mucosa [6] = test: Inhibition of TNFalpha production in intestinal mucosa derived from Crohn's disease patient at 1 uM measured after 24 hrs by sandwich ELISA; type: functional, tissue-based; conditions: Homo sapiens
Intestinal mucosa [7] = test: Inhibition of IL6 production in intestinal mucosa derived from Crohn's disease patient at 1 uM measured after 24 hrs by sandwich ELISA; type: functional, tissue-based; conditions: Homo sapiens
Intestinal mucosa [8] = test: Inhibition of TNFalpha production in intestinal mucosa derived from ulcerative colitis patient at 1 uM measured after 24 hrs by sandwich ELISA; type: functional, tissue-based; conditions: Homo sapiens
Intestinal mucosa [9] = test: Inhibition of IL6 production in intestinal mucosa derived from ulcerative colitis patient at 1 uM measured after 24 hrs by sandwich ELISA; type: functional, tissue-based; conditions: Homo sapiens

CS(=O)(=O)c1ccc2nccc(Nc3n[nH]c4ccc(F)cc34)c2c1
Cmax [1]: 500 ng/mL | AUC [2]: 1700 ng·h/mL

CC(C)S(=O)(=O)c1ccc2nccc(Nc3n[nH]c4ccc(F)cc34)c2c1
Cmax [1]: 370 ng/mL | AUC [2]: 1100 ng·h/mL | IC50 [3]: > 5 µM | IC50 [4]: > 5 µM

Cc1ccc(O)cc1Nc1ccnc2ccc(C(=O)NCC3CCOCC3)cc12
Papp [5]: 1.5 ×10⁻⁶ cm/s | IC50 [3]: > 5 µM | IC50 [4]: > 5 µM

Cc1ccc(O)cc1Nc1ccnc2ccc(S(C)(=O)=O)cc12 [GW559768X]
Papp [5]: 7.9 ×10⁻⁶ cm/s

Cc1ccc(O)cc1Nc1ccnc2ccc(C(F)(F)F)cc12
Papp [5]: 49 ×10⁻⁶ cm/s

Cc1ccc(O)cc1Nc1ccnc2ccccc12
Papp [5]: 25 ×10⁻⁶ cm/s

Cc1ccc(O)cc1Nc1ccnc2ccc(-c3cccnc3)cc12
Papp [5]: 23 ×10⁻⁶ cm/s

C[C@]12C=CC(=O)C=C1CC[C@@H]1[C@@H]2[C@@H](O)C[C@@]2(C)[C@H]1CC[C@]2(O)C(=O)CO
inhibition (Intestinal mucosa [6]): Active | inhibition (Intestinal mucosa [7]): Active | inhibition (Intestinal mucosa [8]): Active | inhibition (Intestinal mucosa [9]): Active

COc1ccc2nccc(Nc3cc(O)ccc3C)c2c1
Papp [5]: 23 ×10⁻⁶ cm/s
